Results reported in the METLIN SMRT retention time set (Domingo-Almenara et al. 2019).

assay: gradient 5% acetonitrile 3 min, to 50% in 2 min, to 85% in 15 min, held 3 min, 100 µL/min; conditions: column: Zorbax Extend-C18 2.1 x 50 mm; eluents: water / acetonitrile, 0.1% formic acid
In short: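 Retention times come from adduct peaks that were picked computationally and then checked by hand. The standards, pure and pooled in mixtures of ~100 molecules, were run on a Zorbax Extend-C18 column (2.1 × 50 mm, 1.8 μm) at 100 μL/min with water and acetonitrile, each with 0.1% formic acid. Detection was by quadrupole time-of-flight mass spectrometry in positive and negative ionization mode, with a dead volume of 40 μL and a dwell volume of 900 μL.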

RP-LC retention time [s]	Structure (SMILES)
611	O=C(Nc1ncccn1)c1ccc(Cl)c(S(=O)(=O)N2CCOCC2)c1
937	COCCn1cc(C(=O)Nc2ccccc2)c2nn(-c3ccccc3)c(=O)c-2c1
875	Cn1cc2c3c(cccc31)CN(C(=O)c1ccccc1F)CC2
653	CCC(C)NC(=O)CCc1c(-c2ccc(Cl)cc2)nc2ccccn12 (stereo unspecified)
518	Cn1cnc(S(=O)(=O)N2CCOc3ccc(CN4CCc5ccccc5C4)cc3C2)c1
671	Cc1nc2cccnc2n1C1CCN(C(=O)Nc2ccc(Br)cc2F)CC1
1030	COc1cc(NC(=O)N2c3ccccc3CC2c2nc(C3CC3)no2)cc(OC)c1 (stereo unspecified)
568	O=C(Cn1cnc(-c2ccc(Cl)cc2)cc1=O)NCc1cccnc1
554	COC(=O)N1CCc2ccc(F)cc2C1C(=O)NCc1cccnc1 (stereo unspecified)
708	Cc1cc2[nH]c(C(=O)Nc3ccccc3Br)c(CN3CCOCC3)c2s1
591	Cc1ccc(=O)n(CC(=O)NCc2cccs2)n1
707	Cc1nc(-c2ccc3c(c2)n(CC(=O)Nc2ccc(S(N)(=O)=O)cc2)c(=O)n3C(C)C)no1
626	Cc1nccn1CC(=O)N1CCCn2cc(-c3cccc(C#N)c3)nc21
690	CC(=O)Nc1ccc(N(Cc2nnc3n2CCCCC3)C(=O)Nc2ccc(Cl)cc2)cc1
805	O=C(NCc1ccc2c(c1)OCO2)C1Cn2cccc2C(=O)N1Cc1ccccc1 (stereo unspecified)
954	COc1ccc(-c2ccc(=O)n(Cc3nc(-c4ccccc4)no3)n2)cc1

RP-LC retention time [s]	Structure (SMILES)
626	O=C(NCC1CCN(c2ncccn2)CC1)C(=O)NCC(F)(F)F
833	COc1cc2nccc(Oc3ccc(NC(=O)C4(C(=O)Nc5ccc(F)cc5)CC4)cc3)c2cc1OC
1070	COc1ccc(-c2nc(Cc3noc(-c4ccccc4OC)n3)c(C)o2)cc1
1070	COCCCn1c(=O)c2ccccc2n(Cc2nc(-c3ccc(Cl)cc3)no2)c1=O
738	Cc1ccc(NS(=O)(=O)c2cc(-c3[nH]ncc3C(=O)N3CCCC3)oc2C)c(F)c1
1130	CCCc1noc(-c2ccc(-n3ncc(C(=O)N4CCCC(C)C4)c3C)nc2)n1 (stereo unspecified)
712	COc1cc(OC)c(NC(=O)C2CC(=O)N(c3cccc(NC(C)=O)c3)C2)cc1Cl (stereo unspecified)
674	CCN(CC)c1ncc2c(n1)CCC(C(=O)Nc1ccc(OC)cc1C)C2 (stereo unspecified)
730	Cc1sc2ncnc(SCC(=O)Nc3ccc(S(N)(=O)=O)cc3)c2c1C
884	CCC(=O)N1CCc2ccccc2C1C(=O)NCc1ccccc1Br (stereo unspecified)
1170	Cc1ccc(-n2cc(C(=O)OCc3ccco3)c3ccccc3c2=O)cc1
614	O=C(N[C@@H]1CN(Cc2ccc(C(F)(F)F)cc2)CC[C@@H]1CO)C1CC1
673	COc1cc(N)c(Cl)cc1C(=O)CCC1CCN(CCNS(C)(=O)=O)CC1
717	Cc1ccccc1-c1nc2cnccn2c1NCCC(=O)NCc1cccc(Cl)c1
713	COc1ccc(N2CCN(c3cc(SCC(=O)NCC4CCCO4)ncn3)CC2)cc1 (stereo unspecified)

Continued, compound first:

Structure (SMILES)	RP-LC retention time [s]
O=C(CSc1ccc(-c2ccco2)nn1)N1CCCCC1	690
COc1ccc(-c2noc(-c3cccn4c(=O)c5ccccc5nc34)n2)cc1OC	994
COc1ccc(Cn2nccc2NC(=O)c2cc(=O)c3ccc(Br)cc3o2)cc1	870
Cc1ccccc1CNC(=O)CCc1nnc2c3cc(-c4ccc(F)cc4)nn3ccn12	811
CNC(=O)c1ccc2c(c1)CCN2C(=O)C(C)C	644
Cc1ccc2c(=O)c3c([nH]c2c1C)CCN(CC(=O)Nc1cccc(Cl)c1C)C3	661
COc1ccc(Cl)cc1NC(=O)C1(c2ccccc2)CCOCC1	1010
O=C(c1cn2ccnc(-c3ccc(F)cc3)c2n1)N1CCN(c2ncccn2)CC1	756
Cc1ccc(C)c(-c2coc(-c3ccc(NC(=O)c4sccc4C)cc3)n2)c1	1330
CCn1nc(C)n2cc(S(=O)(=O)NCc3ccc(C)o3)cc2c1=O	815
O=C(Nc1nnc(C2CC(=O)N(c3ccc(F)cc3)C2)o1)c1ccccc1Cl (stereo unspecified)	712
CCn1cc(CC(=O)NC(C)C)c2cccnc21	595
Cc1sc(C)c(C(=O)NC2(c3ccc(C(=O)O)cc3)CC2)c1Cc1ccc(C(F)(F)F)cc1	1070
O=C(c1ccccn1)N1CCC(n2nc(-c3ccsc3)ccc2=O)CC1	641
COc1ccc(NC(=O)Cn2c(=O)n(-c3ccccc3)c3ncccc32)cc1OC	729
CNC(=O)C1CCCN(c2nc3ncn(CC(=O)Nc4ccc(C(=O)OC)cc4)c(=O)c3s2)C1 (stereo unspecified)	649
C=CCNC(=O)C1CCN(C(=O)Nc2ccc(NC(=O)Nc3cccc(F)c3)cc2)CC1	706
CCn1cc(-c2nc(CC(=O)NCc3cccc(C)c3)cs2)c2cccnc21	892

Structure (SMILES)	RP-LC retention time [s]
Cc1cc2c(cc1NC(=O)c1ccco1)n(C)c(=O)c(=O)n2C	614
COc1ccc2nc(SCC(=O)N3CCC(C(N)=O)CC3)nc(C)c2c1	626
COc1ccc(CNC(=O)CN2C(=O)CSc3cccn3-c3ccccc32)c(OC)c1	868
CC(C)NC(=O)c1ccc(OCC2CCCN(C(=O)c3ccc(Br)o3)C2)cc1 (stereo unspecified)	876
CCOC(=O)CC1(NC(=O)N2CCN(c3nc4ccccc4n3C)CC2)CCCCC1	593
COc1ccc(-c2noc(Cc3nc(-c4ccc(Br)cc4)cs3)n2)cc1	1280
CC1CCc2onc(C(=O)N3CCN(Cc4ccc5c(c4)OCO5)CC3)c2C1 (stereo unspecified)	667
O=C(NC(c1ccccc1)c1nnc(N2CCCCC2)o1)c1ccco1 (stereo unspecified)	774
COc1ccc(OC)c(NC(=O)c2nc(C)oc2C)c1	935
COc1cc(NC(=O)C2CCN(S(=O)(=O)c3cn(C(C)C)cn3)CC2)cc(OC)c1OC	707
COc1ccc(C2C(C(=O)O)c3ccccc3C(=O)N2C)cc1 (stereo unspecified)	688
Cc1nn(CC(=O)N2CCc3ccccc32)c(=O)c2nn(-c3ccccc3)c(C)c12	1050
CCCN1CCN(CCCNC(=O)CN2C(=O)CCn3nc(-c4cn(C)c5ccccc45)cc32)CC1	589
CCN(CC)c1nc2cc(C(=O)OC)ccc2c(=O)n1-c1ccc(C)cc1	1210
COc1cccc(N2C(=O)CC(c3ccc(OC)c(OC)c3)CC2=O)c1	789
COCCn1c(C(CNc2cccc(C)c2)CC(=O)O)nc2ccccc21 (stereo unspecified)	620
COC(=O)C(C)NC(=O)N1CCN(c2nc3ccccc3n2Cc2ccccc2)CC1 (stereo unspecified)	659
